Measurements reported in patent US12692283B2, “Lignan derivative, preparation method therefor and use thereof” (SHANGHAI INSTITUTE OF MATERIA MEDICA, CHINESE ACADEMY OF …, priority 2021, dated 2026).

How the values were obtained:
WI-38 senescent cells = assay: Viability of doxorubicin-induced senescent WI-38 human fibroblasts (MTT); assay type: cell-based; conditions: WI-38, 72 h, senescent cells induced by 200 nM doxorubicin, co-incubation 3 days
Protocol: WI-38 cells were cultured in DMEM (high glucose, 4.5 g/L) culture medium (supplemented with 10% FBS, 1% PS).
The experimental testing steps for the effects of compounds on the viability of WI-38 senescent cells were as follows. WI-38 cells were seeded in a 96-well plate at 20,000 cells/well. After overnight, 200 nM doxorubicin was added to each well and incubated for 3 days. Then the medium was replaced with normal culture medium. After 1 day of incubation, the culture medium was replaced with 200 nM doxorubicin and incubated for 3 days to successfully induce senescence of WI-38 cells. Subsequently, different concentrations of compounds were added (40 μM was the highest concentration, and diluted according to ¼, a total of 7 concentrations), and after co-incubation for 3 days, 10 μl of MTT (5 mg/ml) was added to each well and incubated for 4 hours. DMSO (150 μl) was added to each well after aspirating the culture medium.

MLO-Y4 senescent cells = assay: Viability of doxorubicin-induced senescent MLO-Y4 mouse osteoid cells (MTT); assay type: cell-based; conditions: MLO-Y4, 72 h, senescent cells induced by 100 nM doxorubicin, co-incubation 3 days, read-out: MOL-Y4 IC50
Protocol: MOL-Y4 cells were cultured in MEM culture medium (supplemented with 10% FBS, 1% PS).
The experimental steps for testing the effects of compounds on the viability of MOL-Y4 senescent cells were as follows. MOL-Y4 cells were seeded in a 96-well plate at 20,000 cells/well. After overnight, 100 nM doxorubicin was added to each well and incubated for 3 days. Then the medium was replaced with normal culture medium. After 1 day of incubation, the culture medium was replaced with 100 nM doxorubicin and incubated for 3 days to successfully induce senescence of MOL-Y4 cells. Subsequently, different concentrations of compounds were added (40 μM was the highest concentration, and diluted according to ¼, a total of 7 concentrations), and after co-incubation for 3 days, 10 μl of MTT (5 mg/ml) was added to each well and incubated for 4 hours. DMSO (150 μl) was added to each well after aspirating the culture medium.

OCI-AML3 cells = assay: Viability of human acute myeloid leukemia cells OCI-AML3 (CCK8); assay type: cell-based; conditions: OCI-AML-3, 72 h, incubation 3 days
Protocol: (§1) OCI-AML3 cells, suspension cells, were cultured in RPIM1640+10% FBS+1% PS culture medium at 37° C. and 5% CO2. OCI-AML3 was seeded in a 96-well plate at 20,000 cells/well, and different concentrations of compounds were added (40 μM was the highest concentration, diluted according to ¼, a total of 7 concentrations). After incubation for 3 days, 10 μl CCK8 reagent was added to each well. After incubation for 2 hours, OD450 was detected by a microplate reader, then the effect of the compound on cell viability, IC50 value was calculated.

NB-1 cells = assay: Viability of human neuroblastoma cells NB-1 (CCK8); assay type: cell-based; conditions: NB1, 72 h, incubation 3 days
Protocol: as §1, with “NB-1” for “OCI-AML3”, “μL” for “μl”

[1] = tested on: mitochondrial respiratory chain complex I; conditions: ACS Chemical Biology, 2013, 8 (1), 257-267; cited from earlier work
[2] = Acta Pharmacologica Sinica, 2018, 39, 787-801, cited from earlier work
[3] = target: Mitochondrial Respiratory Complex I (Complex I) (Mus musculus, UniProt P03888+Q91WD5+Q9DC70); assay: Inhibitory activity on mitochondrial respiratory Complex I (NADH activity, mitochondria from mouse heart tissue); assay type: biochemical; conditions: NADH 50 μM, read at 340 nm, 30 μg mouse heart mitochondrial protein
Protocol: Mitochondria were extracted from mouse heart tissue. […] of solution A (0.22M mannitol, 0.07M sucrose, 0.02M HEPES, 2 mM Tris-HCl, 1 mM EDTA, pH 7.2, 0.4% BSA) was added to the heart tissue. The tissue was cut up and then washed three times with solution A to remove blood and connective tissue, then homogenized using a glass homogenizer about 30 times. The suspension was centrifuged at 3000 g for 1.5 min, and the supernatant was retained. The precipitate was resuspended in solution A with protease inhibitor and re-centrifuged to collect the supernatant. The supernatants from two collections were mixed for the next step. The supernatant was centrifuged at 17500 g for 2.5 min and the supernatant was discarded. The precipitate was resuspended in solution A with protease inhibitor, centrifuged at 17500 g for 4.5 min, resuspended in solution B (2.5 mM potassium phosphate, 5 mM MgCl2 pH 7.2) and repeatedly frozen and thawed to obtain a solution of the mitochondrial complex for subsequent assay. To measure the NADH activity of Complex I, 2.5 mL of reaction solution containing 50 mM HEPES, 5 mM MgCl2 pH 7.5 and 30 μg of mitochondrial protein from the above process was prepared. The compound to be detected was added and equilibrated for 5 minutes, and then was dispensed into each well. Finally, NADH (50 μM) was quickly added, and data at […] were read every 30 sec for a total of 15 minutes. Calculation: the NADH reaction rates for different compounds were calculated, then the inhibition rate (compound reaction rate/control reaction rate×100) was calculated, and the IC50 value of the compound was finally calculated.

[4] = Oral pharmacokinetics of Compound A4-1a and Arctigenin in ICR mice (plasma, liver, colon); assay type: in vivo, mouse; conditions: oral 30 mg/kg, 1-8 h
Protocol: Arctigenin and Compound A4-1a were administered orally at 30 mg/kg to overnight-fasted ICR mice (male, n=3/time point), respectively. The mice were fed 2 hours after administration. Samples were collected before administration and 1 h, 2 h, 4 h, and 8 h after administration. Blood was collected in centrifuge tubes pretreated with heparin sodium and bis(4-nitrophenyl)phosphate (BNPP). After centrifugation at 11,000 rpm for 5 min at 4° C., plasma was obtained and stored at −80° C. Next, 100 […] of plasma sample, precipitated, vortexed for 1 min, and centrifuged (11,000 rpm) for 5 min. A mixture of 20 […] of methanol/acetonitrile (1:1, v/v) was taken to analyze the concentration of the compound by LC-MS/MS. Liver tissue was stored at −80° C. until analysis. After removal of contents, the colon was quickly washed with cold saline containing BNPP and stored at −80° C. until analysis. Analysis method: After 10 times the weight of MeOH/ACN (1:1, v/v) was added to the tissue samples, the homogenate was obtained by homogenizing for 120 s with a homogenizer at 50 Hz and then centrifuged (11000 rpm) for 5 min, and the supernatant was collected. 20 μL of the supernatant was redissolved in 20 μL of ACN/H2O (1:1, v/v), and the compound concentration was analyzed in LC-MS/MS.

Mitochondrial Respiratory Complex I (Complex I), sequence (P03888 whole entry): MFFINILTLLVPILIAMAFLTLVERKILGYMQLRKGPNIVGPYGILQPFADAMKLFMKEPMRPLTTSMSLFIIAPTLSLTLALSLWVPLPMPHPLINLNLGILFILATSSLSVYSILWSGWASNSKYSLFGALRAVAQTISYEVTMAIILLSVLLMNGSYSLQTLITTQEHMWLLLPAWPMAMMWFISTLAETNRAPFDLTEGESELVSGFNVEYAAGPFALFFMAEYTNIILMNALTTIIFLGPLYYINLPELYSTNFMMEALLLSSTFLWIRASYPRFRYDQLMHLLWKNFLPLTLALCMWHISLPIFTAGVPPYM
Mitochondrial Respiratory Complex I (Complex I), sequence (Q91WD5 34-463): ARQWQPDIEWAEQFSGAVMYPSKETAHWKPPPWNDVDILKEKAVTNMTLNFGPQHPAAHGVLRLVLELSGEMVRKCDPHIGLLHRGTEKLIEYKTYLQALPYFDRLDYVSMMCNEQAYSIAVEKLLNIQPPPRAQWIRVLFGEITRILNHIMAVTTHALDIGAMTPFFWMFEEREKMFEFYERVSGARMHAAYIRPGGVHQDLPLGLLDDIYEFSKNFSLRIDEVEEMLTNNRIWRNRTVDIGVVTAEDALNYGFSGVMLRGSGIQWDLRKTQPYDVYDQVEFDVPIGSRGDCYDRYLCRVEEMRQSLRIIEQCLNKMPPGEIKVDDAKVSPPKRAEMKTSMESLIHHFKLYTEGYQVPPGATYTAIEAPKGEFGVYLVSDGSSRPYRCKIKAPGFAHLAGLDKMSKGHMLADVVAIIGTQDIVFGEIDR
Mitochondrial Respiratory Complex I (Complex I), sequence (Q9DC70 36-224): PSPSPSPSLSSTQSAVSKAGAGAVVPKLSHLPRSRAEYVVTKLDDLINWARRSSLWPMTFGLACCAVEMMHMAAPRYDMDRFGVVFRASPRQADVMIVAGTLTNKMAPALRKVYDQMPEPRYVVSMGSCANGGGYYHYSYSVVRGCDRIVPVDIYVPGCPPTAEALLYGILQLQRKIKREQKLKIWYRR

SMILES | IC50 (OCI-AML3 cells) [µM] | IC50 (NB-1 cells) [µM] | IC50 [3] [µM] | other results
CC1(C)CCC(c2ccc(Cl)cc2)=C(CN2CCN(c3ccc(C(=O)NS(=O)(=O)c4ccc(N[C@H](CCN5CCOCC5)CSc5ccccc5)c(S(=O)(=O)C(F)(F)F)c4)cc3)CC2)C1 [ABT263, reference compound] | – | – | – | IC50 (WI-38 senescent cells): 5.6 µM; IC50 (MLO-Y4 senescent cells): 0.235 µM
COc1cc(C[C@H]2C(=O)OC[C@@H]2Cc2ccc(OC)c(OC)c2)ccc1O [Arctigenin] | 0.589 | 2.38 | – | inhibition of mitochondrial respiratory chain complex I [1]: moderately potent and selective inhibitor; metabolism after oral administration [2]: easily metabolized after oral administration; bioavailability ([2]; oral): low bioavailability; pharmacokinetic properties ([2]; oral): poor pharmacokinetic properties
COc1cc(C[C@@]2(C)C(=O)OC[C@@H]2Cc2ccc(OC)c(OC)c2)ccc1O [Compound A4-1a, (3R,4R)-4-(3,4-dimethoxybenzyl)-3-(4-hydroxy-3-methoxybenzyl)-3-methyldihydrofuran-2 (3H)-one] | 0.081 | 0.424 | 0.507 | IC50 (WI-38 senescent cells): 0.038 µM; IC50 (MLO-Y4 senescent cells): 0.04 µM; drug concentrations in plasma and tissues compared with Arctigenin [4]: significantly higher drug concentrations in plasma and tissues
COc1cc(C[C@]2(F)C(=O)OC[C@@H]2Cc2ccc(OC)c(OC)c2)ccc1O [Compound A4-1b] | – | – | 1.27 | –
COc1cc(C[C@@]2(F)C(=O)OC[C@@H]2Cc2ccc(OC)c(OC)c2)ccc1O [Compound A4-1c] | – | – | 0.185 | –
COc1cc(C[C@@]2(Cl)C(=O)OC[C@@H]2Cc2ccc(OC)c(OC)c2)ccc1O [Compound A4-1d] | 0.169 | 0.546 | – | –
COc1cc(C[C@@]2(CCl)C(=O)OC[C@@H]2Cc2ccc(OC)c(OC)c2)ccc1O [Compound A4-1e] | – | – | 0.473 | IC50 (WI-38 senescent cells): 1 µM; IC50 (MLO-Y4 senescent cells): 0.15 µM
COc1cc(C[C@@]2(CO)C(=O)OC[C@@H]2Cc2ccc(OC)c(OC)c2)ccc1O [Compound A4-1i] | 0.091 | 0.433 | – | –
COc1ccc(C[C@H]2COC(=O)[C@@H]2Cc2ccc(O)c(OCCc3ccccc3)c2)cc1OC [Compound B9-1a, (3R,4R)-4-(3,4-dimethoxybenzyl)-3-(4-hydroxy-3-phenylethoxybenzyl)dihydrofuran-2 (3H)-one] | – | – | 0.054 | –
[2H]C([2H])([2H])Oc1cc(C[C@H]2C(=O)OC[C@@H]2Cc2ccc(OC)c(OC)c2)ccc1O [Compound B9-1d] | 0.602 | – | 0.696 | –
COc1ccc(C[C@H]2COC(=O)[C@@H]2Cc2ccc(O)c(OCC(F)(F)F)c2)cc1OC [Compound B9-1e] | 0.274 | 0.175 | – | –
COc1ccc(C[C@H]2COC(=O)[C@@H]2Cc2ccc(O)c(OCc3ccccc3)c2)cc1OC [Compound B9-1p] | – | – | 0.465 | –
COc1ccc(C[C@H]2COC(=O)[C@@H]2Cc2ccc(O)c(OCCc3ccc(C(F)(F)F)cc3)c2)cc1OC [Compound B9-1q] | – | – | 0.064 | –
COc1ccc(C[C@H]2COC(=O)[C@@H]2Cc2ccc(O)c(OCCn3cccc3)c2)cc1OC [Compound B9-1r] | – | – | 0.316 | –
COc1ccc(C[C@H]2COC(=O)[C@@H]2Cc2ccc(O)c(OCC(O)c3ccccc3)c2)cc1OC (stereo partly shown) [Compound B9-1u] | – | – | 0.564 | –
COc1ccc(C[C@H]2COC(=O)[C@@H]2Cc2ccc(O)c(OCCCc3ccccc3)c2)cc1OC [Compound B9-1v] | – | – | 0.034 | –
COc1ccc(C[C@H]2COC(=O)[C@@H]2Cc2ccc(O)c(OCC(O)c3ccc(C(F)(F)F)cc3)c2)cc1OC (stereo partly shown) [Compound B9-1x] | – | – | 0.65 | –
COc1ccc(C[C@H]2COC(=O)[C@]2(C)Cc2ccc(O)c(OCCc3ccccc3)c2)cc1OC [Compound B11-1a, (3R,4R)-4-(3,4-dimethoxybenzyl)-3-(4-hydroxy-3-phenylethoxybenzyl)-3-methyldihydrofuran-2 (3H)-one] | – | – | 0.646 | –
COc1ccc(C[C@H]2COC(=O)[C@]2(C)Cc2ccc(O)c(OCC(F)(F)F)c2)cc1OC [Compound B11-1b] | 0.047 | 0.626 | 0.668 | –
COc1ccc(C[C@H]2COC(=O)[C@]2(C)Cc2ccc(O)c(OCC(O)c3ccc(C(F)(F)F)cc3)c2)cc1OC (stereo partly shown) [Compound B11-1c] | 0.289 | 0.446 | – | –
COc1cc(C[C@H]2COC(=O)[C@]2(C)Cc2ccc(O)c(OC)c2)ccc1O [Compound B11-1e] | – | – | 1.37 | –
COc1cc(C[C@@]2(C)C(=O)OC[C@@H]2Cc2ccc3c(c2)OCO3)ccc1O [Compound B11-1f] | – | – | 0.42 | –
COc1ccc(C[C@H]2COC(=O)[C@]2(C)Cc2ccc(OC)c(OC)c2)cc1OC [Compound B11-1h] | – | – | 13.2 | –
